Substitutions are numbered along the chain they refer to. “Also recorded” adds a separate entry of the source. Values belong to the compound of their own block, whether it stands above or below them.
Assays:
[1] = test system: human iPSC-derived microglia (WT and TREM2 KO); experiment: In vitro lipid storage assay, lipidomics by LC/MS, iPSC microglia treated with myelin; format: cell-based; conditions: myelin 25 ug/mL 48 h, LXR agonist 10 uM; for cholesteryl ester (CE) accumulation: WT and TREM2 KO iPSC microglia
Protocol: Lipid analyses were performed by liquid chromatography (Shimadzu Nexera X2 system, Shimadzu Scientific Instrument, Columbia, Md., USA) coupled to electrospray mass spectrometry (QTRAP 6500+, Sciex, Framingham, Mass., USA). For each analysis, 5 μL of sample was injected on a BEH C18 1.7 μm, 2.1×100 mm column (Waters Corporation, Milford, Mass., USA) using a flow rate of 0.25 mL/min at 55° C. For positive ionization mode, mobile phase A consisted of 60:40 acetonitrile/water (v/v) with 10 mM ammonium formate+0.1% formic acid; mobile phase B consisted of 90:10 isopropyl alcohol/acetonitrile (v/v) with 10 mM ammonium formate+0.1% formic acid. For negative ionization mode, mobile phase A consisted of 60:40 acetonitrile/water (v/v) with 10 mM ammonium acetate; mobile phase B consisted of 90:10 isopropyl alcohol/acetonitrile (v/v) with 10 mM ammonium acetate. The gradient was programmed as follows: 0.0-8.0 min from 45% B to 99% B, 8.0-9.0 min at 99% B, 9.0-9.1 min to 45% B, and 9.1-10.0 min at 45% B. Electrospray ionization was performed in either positive or negative ion mode applying the following settings: curtain gas at 30; collision gas was set at medium; ion spray voltage at 5500 (positive mode) or 4500 (negative mode); temperature at 250° C. (positive mode) or 600° C. (negative mode); ion source Gas 1 at 50; ion source Gas 2 at 60. Data acquisition was performed using Analyst 1.6.3 (Sciex) in multiple reaction monitoring mode (MRM), with the following parameters: dwell time (msec) and collision energy (CE) for each species reported in Table 2 (positive mode) or Table 3 (negative mode); declustering potential (DP) at 80; entrance potential (EP) at 10 (positive mode) or −10 (negative mode); and collision cell exit potential (CXP) at 12.5 (positive mode) or −12.5 (negative mode). Lipids were identified based on their retention times and MRM properties of commercially available reference standards (Avanti Polar Lipids, Birmingham, Ala., USA). Quantification was performed using MultiQuant 3.02 (Sciex). Metabolites were normalized to either total protein amount or cell number. […]

TREM2 [2] = target: T1, TREM2 (Homo sapiens, UniProt Q9NZC2); experiment: pSYK AlphaLISA in TREM2/DAP12-expressing stable HEK293 cells; format: cell-based; parameters: expressed in transfected cells; conditions: for binding to and signaling via TREM2 (overall conclusion): conclusion from pSYK and SPR studies; for pSYK levels: liposomes 30% test lipid/70% PC, or oxLDL, vs DAP12-only cells and buffer control
Protocol: (§1) 70 molar percent DOPC (1,2-dioleoyl-sn-glycero-3-phosphocholine, Avanti Polar Lipids) and 30 molar percent of one test lipid were combined in chloroform in a glass vial and dried under a stream of N2 gas for 1-2h, or until completely dry. Test lipids included sulfatide (Avanti), POPS (Avanti), SM (Avanti), PI (Avanti), GalCer (Avanti), PE (Echelon Biosciences), and free cholesterol (Echelon Biosciences). The lipid mixture was re-suspended in HBSS (1-2 mg/mL final lipid concentration) and vortexed for 2-3 min. Subsequently, the lipid suspension was bath sonicated for 10 minutes. For surface plasmon resonance experiments, liposomes were extruded 10 times using an Avanti mini-extruder constructed with one 100 nm pore size membrane to form small unilamellar vesicles.
HEK293 cells were transfected with a pBudCE4.1 Mammalian Expression Vector (ThermoFisher) expressing wildtype human TREM2 and DAP12, and DAP12 alone. Stable expressing clones were selected and the cell surface TREM2 expression was evaluated by flow cytometry with APC-conjugated rat-anti-human/mouse-TREM2 monoclonal (R&D MAB17291). The highest wild type TREM2 expressing clone was selected for expansion. The clones stably expressing DAP12 were analyzed by Western blot.
(§2) Activation of TREM2-dependent pSYK signaling was measured using a commercial AlphaLISA assay (PerkinElmer). HEK293 cells: Two days before the experiment, HEK293 cells stably overexpressing TREM2 and DAP12 were plated at 40,000 cells/well on 96 well poly-D-lysine-coated plate. Differentiated human macrophage and BMDM were plated at 100,000 cells/well on tissue-culture treated 96-well plates. Cells were washed once with HBSS, then 50 μL of liposome mixture was added per well. For competition experiments, hTREM2-ECD or TREM1-his (Novoprotein Scientific) was incubated with liposomes for 1 hour at room temperature before adding to cells. 5 μg/mL human-specific mouse anti-TREM2 (Abnova) or 15 μg/mL mouse-specific sheep anti-TREM2 (R&D Systems) was added to each experiment as a positive control with side-by-side isotype controls, 5 μg/mL mouse IgG3 (R&D Systems) and 15 μg/mL polyclonal sheep IgG (R&D Systems), respectively. The cell plate was then transferred to a 37° C. incubator for 5 minutes. The liposome solution was discarded and 40 uL lysis buffer (Cell Signaling Technologies, CST). Lysate was incubated at 4 C for 30 min, then either frozen at −80 C or immediately carried forward to the alpha-LISA assay. Lysates were assayed using the standard protocol for the PerkinElmer pSYK AlphaLISA kit. 10 μL of lysate/well was transferred to a white opaque 384 well Optiplate (PerkinElmer). 5 μL of Acceptor Mix (containing the working solution of acceptor beads) was added per well followed by sealing of plates with foil seals and incubation 1 hour at room temperature. 5 μL of Donor Mix (containing the working solution of donor beads) was added to each well under reduced light conditions. Plates were again sealed and incubated 1 hour at room temperature. Plates were read using AlphaLISA settings on a PerkinElmer EnVision plate reader.

hTREM2 = target: T2, hTREM2 (Homo sapiens, UniProt Q9NZC2); experiment: Lipid binding analysis using surface plasmon resonance, hTREM2 ECD; conditions: for Response Units at the highest analyte concentration: 30% test lipid/70% PC liposomes
T2 construct: The ecto domain (residues 19-172) of TREM2 was sub cloned in the pRK vector; secretion signal from mouse Ig kappa chain V-III (amino acids 1-20) (N); made in house; host or cells: Expi293F cells (secreted, purified from the media by Ni-NTA and SEC)
T2 sequence (Q9NZC2 19-172): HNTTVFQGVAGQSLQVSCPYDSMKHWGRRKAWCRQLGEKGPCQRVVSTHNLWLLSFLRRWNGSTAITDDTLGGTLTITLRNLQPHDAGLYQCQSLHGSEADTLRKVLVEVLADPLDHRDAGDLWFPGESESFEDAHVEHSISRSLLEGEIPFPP
Protocol: as §1
The ecto domain (residues 19-172) of TREM2 was sub cloned in the pRK vector with the secretion signal from mouse Ig kappa chain V-III, amino acids 1-20 at the N-terminal region and a 6×-His tag at the C-terminal region. Expi293F™ cells were transfected using the Expi293™ M Expression System Kit according to the manufacturer's instructions and the media supernatant was harvested 96 hr post transfection. Harvested media was supplemented with 1M imidazole pH 8.0 to a final concentration 10 mM, filtered, and loaded on to HisPur™ Ni-NTA Resin equilibrated with load buffer (20 mM Tris pH 8.0, 150 mM NaCl and 10 mM Imidazole). Nonspecifically bound proteins were washed with load buffer supplemented with 50 and 100 mM imidazole and TREM2 ecto domain was eluted with 20 mM Tris pH 8.0, 150 mM NaCl and 200 mM Imidazole. […] Elute fractions were analyzed by SDS PAGE and further characterized by analytical size exclusion chromatography and the intact protein mass determination.
The binding analysis was performed using Series S Sensor chip L1 and Biacore T200 instrument (GE Healthcare) at 25° C. […] Recombinant hTREM2-ECD or hTREM2-R74H-ECD proteins were diluted in PBS (0, 0.19, 0.56, 1.7, 5, and 15 μM) and injected over both flow cells for 60 seconds at 30 μl/min, and dissociation was monitored for additional 2 minutes. […]

hTREM2 R47H = target: T3, hTREM2 R47H (Homo sapiens, UniProt Q9NZC2, R47H); experiment: Lipid binding analysis using surface plasmon resonance, hTREM2 R47H ECD; conditions: for Response Units at the highest analyte concentration: 30% test lipid/70% PC liposomes; for Kd: 30% test lipid/70% PC liposomes on L1 chip, 25° C., steady-state; for faster off-rate of R47H variant vs hTREM2: SPR kinetic analysis
T3 construct: The ecto domain (residues 19-172) of TREM2 was sub cloned in the pRK vector; secretion signal from mouse Ig kappa chain V-III (amino acids 1-20) (N); made in house; host or cells: Expi293F cells (secreted, purified from the media by Ni-NTA and SEC)
T3 sequence (Q9NZC2 19-172 R47H): T2 sequence (Q9NZC2 19-172) with R29H
Protocol: as §1
The ecto domain (residues 19-172) of TREM2 was sub cloned in the pRK vector with the secretion signal from mouse Ig kappa chain V-III, amino acids 1-20 at the N-terminal region and a 6×-His tag at the C-terminal region. Expi293F™ cells were transfected using the Expi293™ M Expression System Kit according to the manufacturer's instructions and the media supernatant was harvested 96 hr post transfection. Harvested media was supplemented with 1M imidazole pH 8.0 to a final concentration 10 mM, filtered, and loaded on to HisPur™ Ni-NTA Resin equilibrated with load buffer (20 mM Tris pH 8.0, 150 mM NaCl and 10 mM Imidazole). Nonspecifically bound proteins were washed with load buffer supplemented with 50 and 100 mM imidazole and TREM2 ecto domain was eluted with 20 mM Tris pH 8.0, 150 mM NaCl and 200 mM Imidazole. Eluted protein was pooled and subjected to size exclusion chromatography onto a HiLoad Superdex 75 16/600 column using 1×PBS as the running buffer. Elute fractions were analyzed by SDS PAGE and further characterized by analytical size exclusion chromatography and the intact protein mass determination.
The binding analysis was performed using Series S Sensor chip L1 and Biacore T200 instrument (GE Healthcare) at 25° C. Before coating with lipids, the sensor surfaces were washed with 1 minute injection of 40 μM 3-[(3cholamidopropyl)dimethylammonio]-1-propanesulfonate (CHAPS) and 40 uM of 0-octylglucoside at a flow rate of 30 μl/min. Residual detergent on the sensor surfaces was washed away by 30 second injection of 30% ethanol. 1 mg/ml Sulfatide/DOPC or PS/DOPC small unilamellar vesicles were injected for 15 minutes at 5 μl/min over the second flow cell. First flow cell was coated with DOPC and served as a reference surface. Loosely bound vesicles were washed away with two short pulses (15 s) of 10 mM NaOH at 30 μl/min followed by injection of 0.1 mg/ml bovine serum albumin for 3 minutes to block poorly-coated surface. Recombinant hTREM2-ECD or hTREM2-R74H-ECD proteins were diluted in PBS (0, 0.19, 0.56, 1.7, 5, and 15 μM) and injected over both flow cells for 60 seconds at 30 μl/min, and dissociation was monitored for additional 2 minutes. Between each measurement the lipids surface was regenerated by injection of 10 mM NaOH. Steady-state affinities were obtained by fitting the response at equilibrium against the concentration using Biacore™ T200 Evaluation Software v3.1

TREM2 [3] = target: T1, TREM2; experiment: pSYK AlphaLISA in human macrophages; format: cell-based; parameters: a system with endogenous expression of TREM2/DAP12; endogenous in cells; host or cells: macrophages differentiated from human peripheral blood monocytes (2-5 donors); conditions: for pSYK levels, titration: liposome or oxLDL titration
Protocol: as §1
as §2, with “Lysates were assayed using the standard protocol for the PerkinElmer pSYK AlphaLISA kit. 10 μL of lysate/well was transferred to a white opaque 384 well Optiplate (PerkinElmer). 5 μL of Acceptor Mix (containing the working solution of acceptor beads) was added per well followed by sealing of plates with foil seals and incubation 1 hour at room temperature. 5 μL of Donor Mix (containing the working solution of donor beads) was added to each well under reduced light conditions. Plates were again sealed and incubated 1 hour at room temperature.” left out, “reader. […]” for “reader.”

T1 sequence (Q9NZC2 19-230): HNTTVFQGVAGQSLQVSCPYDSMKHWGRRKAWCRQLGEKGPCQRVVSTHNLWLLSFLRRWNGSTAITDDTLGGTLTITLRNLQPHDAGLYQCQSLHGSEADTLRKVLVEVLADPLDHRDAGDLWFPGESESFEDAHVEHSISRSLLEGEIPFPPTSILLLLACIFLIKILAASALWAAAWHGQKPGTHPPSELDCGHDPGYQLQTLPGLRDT
T1 sequence (O43914 22-113 partner): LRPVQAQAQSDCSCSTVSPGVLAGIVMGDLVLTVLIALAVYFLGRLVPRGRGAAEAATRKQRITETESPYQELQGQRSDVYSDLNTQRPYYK

Compound: O=C(O)Cc1cccc(OCCCN(Cc2cccc(C(F)(F)F)c2Cl)CC(c2ccccc2)c2ccccc2)c1 [GW3965]
cholesterol levels ([1]; TREM2 KO iPSC microglia): not rescued
cholesteryl ester (CE) accumulation [1]: rescued; also recorded: reduced
cholesteryl ester (CE) accumulation ([1]; listed as GW3695): rescued the accumulation of all CE species measured

Compound: galactosylceramide [GalCer]
binding to and signaling via TREM2 (overall conclusion) (TREM2 [2]): did not appear to bind and signal via TREM2

Compound: phosphatidylethanolamine [PE]
binding to and signaling via TREM2 (overall conclusion) (TREM2 [2]): did not appear to bind and signal via TREM2

pSYK levels (TREM2 [2]): significantly increased pSYK levels
Compound: phosphatidylinositol [PI]
binding to and signaling via TREM2 (overall conclusion) (TREM2 [2]): did not appear to bind and signal via TREM2

Response Units at the highest analyte concentration (hTREM2): 631 RU
Response Units at the highest analyte concentration (hTREM2 R47H): 267 RU
Kd (hTREM2 R47H): 14 µM
faster off-rate of R47H variant vs hTREM2 (hTREM2 R47H): 2.4 fold
pSYK levels, titration (TREM2 [3]): dose-dependent increases in pSYK levels
Compound: phosphatidylserine [PS]

Compound: sphingomyelin [SM]
binding to and signaling via TREM2 (overall conclusion) (TREM2 [2]): did not appear to bind and signal via TREM2

Response Units at the highest analyte concentration (hTREM2): 704 RU
Kd (hTREM2; 30% test lipid/70% PC liposomes on L1 chip, 25° C., steady-state): 6.8 µM
Response Units at the highest analyte concentration (hTREM2 R47H): 191 RU
Kd (hTREM2 R47H): 20 µM
faster off-rate of R47H variant vs hTREM2 (hTREM2 R47H): 5 fold
binding to and signaling via TREM2 (overall conclusion) (TREM2 [2]): binds and signals via TREM2
pSYK levels (TREM2 [2]): significantly increased pSYK levels
pSYK increase with recombinant TREM2 ECD competition (TREM2 [3]; 3 μM recombinant TREM2-ECD): reduced to baseline levels
pSYK levels, titration (TREM2 [3]): dose-dependent increases in pSYK levels
Compound: sulfatide

Reference: US20230132366A9, “METHODS FOR TREATING DYSREGULATED LIPID METABOLISM” (DENALI THERAPEUTICS INC., priority 2018, published 2023)
